Assay results: patent publication EP0588622B1, “Bleach composition” (UNILEVER PLC, priority 1992, dated 1994)
Read-outs that look alike come from different tables or passages of the source. Blank lines part the entries; values can stand above or below the molecule they belong to.

Assays:
[1] = Stain bleaching, visual assessment of stained cloths after tergotometer wash (Example V); conditions: for Ranking: score 1 smallest, 4 greatest cleaning benefit, peroxyacid 9.2x10^-4 mol l^-1, 40°C, 30 minutes
[2] = Tea stain bleaching, difference in reflectance at 460 nm before and after washing (Example VI); conditions: 40°C, 30 minutes
Method: The stain bleaching performance was measured by determining the difference ([…]) in %reflectance of cloths at 460 nm before and after washing. […] This was carried out in a tergotometer at 40°C, washing for 30 minutes. Cloths were washed in 450 ml 18°FH water with 1.8 g NSPA base powder and peroxyacid included at 9.2x10^-4 mol l^-1. Two series of experiments were carried out; one at pH 6 where the peracid is largely in its undissociated form and one above the peracid pKa, at pH 9. A stained piece of fabric measuring 8x8 cm was cut into four such that each quarter would be washed under one of each of the four experimental conditions. The method as in example V was used in determining the tea stain bleaching effect of sterically hindered hydrophobic peroxyacids, the differences being that 3 replicates were used, the reflectance was measured before and after washing, tests were done over a pH range of from 6 to 10 and 4 g/l NSPA base powder was used.

[3] = peroxyacid solution 0.000525 moles/l plus EDTA, 22-24°C, 30 minutes
[4] = pKa determination by sodium hydroxide titration of peroxyacid solution
[5] = Dye damage in tergotometer wash at pH 9 (Example VII), triacetate; conditions: triacetate dyed with CI disperse 14; pH 9, 40°C, 30 minutes, peroxyacid 9.2x10^-4 mole/l
[6] = Dye damage in tergotometer wash at pH 9 (Example VII), nylon 6,6; conditions: nylon 6,6 dyed with CI disperse 14; pH 9, 40°C, 30 minutes, peroxyacid 9.2x10^-4 mole/l
[7] = Dye damage in tergotometer wash with detergent base at pH 6 to 10 (Example III); conditions: peroxyacid 9.2x10^-4 mole/l, detergent base 4 g/l, 40°C, 30 minutes
[8] = Dye damage in tergotometer wash at pH 9 (Example VII), diacetate; conditions: diacetate dyed with CI disperse 14; pH 9, 40°C, 30 minutes, peroxyacid 9.2x10^-4 mole/l

SMILES: O=C(OO)C12CC3CC(CC(C3)C1)C2 [Peradamantoic, Peradamantoic acid]
- Ranking ([1]; Washes at pH 9): 4
- Ranking ([1]; Washes pH 6): 4
- removal of the stain ([1]; black biro stain, both at pH 6 and 9): almost complete removal of the stain
- TEA STAIN BLEACHING ΔR460NM ([2]; pH 6, 4 g/l NSPA base powder): 13.2
- TEA STAIN BLEACHING ΔR460NM ([2]; pH 7, 4 g/l NSPA base powder): 16.9
- TEA STAIN BLEACHING ΔR460NM ([2]; pH 8, 4 g/l NSPA base powder): 17.3
- TEA STAIN BLEACHING ΔR460NM ([2]; pH 9, 4 g/l NSPA base powder): 13.1
- TEA STAIN BLEACHING ΔR460NM ([2]; pH 10, 4 g/l NSPA base powder): 3.6
- % dye damage [3]: 11.2%
- pKa [4]: 7.95

SMILES: CC1C2CCC(C2)C1C(=O)OO (stereo not drawn) [Trans-3-Methyl norbornane-endo-2-percaboxylic]
- % dye damage [3]: 8.2%
- pKa [4]: 8.15

SMILES: CC1(C(=O)OO)CC2CCC1C2 (stereo not drawn) [2 methylnorbornane-endo-2-percaboxylic]
- % dye damage [3]: 5.6%
- pKa [4]: 8.2

SMILES: O=C(OO)C1CC2CCC1C2 (stereo not drawn) [Norbornane-endo-2-Percarboxylic]
- % dye damage [3]: 7.0%
- pKa [4]: 8.15

SMILES: O=C(OO)C1CC2CCC1C2 (centres unmarked) [NBC, Norbornane 2-peroxyacid]
- Ranking ([1]; Washes at pH 9): 2
- Ranking ([1]; Washes pH 6): 2

Continued, in another order:

- pKa (physchem): 7.98
SMILES: CC(C)(C)c1ccc(C(=O)OO)cc1 [p-bu^t perbenzoic, p-t-butylperbenzoic acid]
- % dye damage [3]: 19.6%

- pKa [4]: 8.1
SMILES: CCCCCCCCC(=O)OO [n-pernonanoic, n-pernonanoic acid]
- % dye damage [5]: 85%
- % dye damage [6]: 52%
- % DYE DAMAGE ([7]; pH 6): 70.4%
- % DYE DAMAGE ([7]; pH 7): 67.9%
- % DYE DAMAGE ([7]; pH 8): 63.7%
- % DYE DAMAGE ([7]; pH 9): 37.2%
- % DYE DAMAGE ([7]; pH 10): 15.0%
- % dye damage [8]: 82%

- pKa [4]: 8
SMILES: CCCCc1ccc(C(=O)OO)cc1 [p-bu^n perbenzoic, reference compound]
- % dye damage [3]: 39.6%

- pKa [4]: 8.1
SMILES: CC(CC(=O)OO)CC(C)(C)C (centres unmarked) [iso-pernonanoic, peroxy-3,5,5-trimethylhexanoic acid]
- % dye damage [5]: 23%
- % dye damage [6]: 11%
- % dye damage [8]: 25%
